From ChEMBL document CHEMBL4680133, “Novel nitroimidazole derivatives evaluated for their trypanocidal, cytotoxic, and genotoxic activities” (Eur J Med Chem, 2020)

Assays:
[1] = Mutagenicity in Salmonella typhimurium TA97 assessed as revertant/ug measured after 20 mins in absence of S9 fraction by microsome assay; type: toxicity; conditions: salmonella enterica subsp. enterica serovar typhimurium, microsomes
[2] = Mutagenicity in Salmonella typhimurium TA100 assessed as revertant/ug measured after 20 mins in absence of S9 fraction by microsome assay; type: toxicity; conditions: salmonella enterica subsp. enterica serovar typhimurium, microsomes
[3] = Mutagenicity in Salmonella typhimurium TA100 assessed as revertant/ug measured after 20 mins in presence of S9 fraction by microsome assay; type: toxicity, subcellular; conditions: salmonella enterica subsp. enterica serovar typhimurium, s9, 20 min
[4] = Mutagenicity in Salmonella typhimurium TA97 assessed as revertant/ug measured after 20 mins in presence of S9 fraction by microsome assay; type: toxicity, subcellular; conditions: salmonella enterica subsp. enterica serovar typhimurium, s9, 20 min
Trypanosoma cruzi = assay: Antitrypanosomal activity against bloodstream form of Trypanosoma cruzi Y trypomastigotes infected in African green monkey Vero cells assessed as increase in parasite lysis measured after 24 hrs by Neubauer chamber method; type: functional, organism-based

SMILES	IC50 (Trypanosoma cruzi)	further results
Cn1cnc([N+](=O)[O-])c1-n1cccn1	–	Activity [1]: 11.5 revertants/µg; Activity [2]: 65.5 revertants/µg; Activity [3]: 35.5 revertants/µg; Activity [4]: Non-Toxic
Cn1cnc([N+](=O)[O-])c1-n1cc(-c2ccccc2)nn1	25.2 µM	–
CCCCCc1cn(-c2c([N+](=O)[O-])ncn2C)nn1	54.3 µM	–
Cn1cnc([N+](=O)[O-])c1-n1ccnc1	> 2000 µM	–
Cn1cnc([N+](=O)[O-])c1-n1cc(C2=CCCCC2)nn1	41.7 µM	–
